In paper PMC2909451 (European journal of pharmaceutical sciences : official …, 2010):
Structures can show the parent of a compound that is named as a salt. Where two headings read alike, the source gives them in different places.

How the values were obtained:
[1] = molecular target: T1, human apical sodium-dependent transporter (SLC10A2, ASBT) (Homo sapiens, UniProt Q12908)
T1 sequence (Q12908 1-348): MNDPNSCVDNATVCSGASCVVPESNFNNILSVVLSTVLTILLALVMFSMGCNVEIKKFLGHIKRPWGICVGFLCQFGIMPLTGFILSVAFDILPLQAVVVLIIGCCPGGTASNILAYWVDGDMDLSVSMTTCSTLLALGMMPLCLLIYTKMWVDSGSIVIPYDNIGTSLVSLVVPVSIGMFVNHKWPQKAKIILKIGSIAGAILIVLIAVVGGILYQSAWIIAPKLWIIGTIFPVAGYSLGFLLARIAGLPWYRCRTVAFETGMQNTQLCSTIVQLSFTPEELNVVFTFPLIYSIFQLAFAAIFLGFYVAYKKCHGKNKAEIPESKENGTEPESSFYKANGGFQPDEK

[2] = molecular target: T1, human apical sodium-dependent transporter (SLC10A2, ASBT); assay: ASBT cis-inhibition of taurocholate uptake in ASBT-MDCK cells; details: for potency estimated from few doses: read-out: Ki estimated from one concentration; for inhibition at 25 µM / inhibition at 200 µM / inhibition at 1000 µM / inhibition at 5000 µM / inhibition at 10 µM / inhibition at 5 µM: read-out: percent taurocholate inhibited at the highest inhibitor concentration
[3] = Ki, inhibitor concentration range 0-50 μM, mean±S.E.
[4] = Ki, inhibitor concentration range 0-100 μM, mean±S.E.
[5] = Ki, inhibitor concentration range 0-200 μM, mean±S.E.
[6] = Ki, inhibitor concentration range 0-500 μM, mean±S.E.
[7] = Ki, inhibitor concentration range 0-1000 μM, mean±S.E.
[8] = Ki, inhibitor concentrations 0, 25 μM (Table 2), mean±S.E.
[9] = Reference Ki, from the comprehensive inhibition profile
[10] = Ki, inhibitor concentration range 0-25 μM, mean±S.E.
[11] = Ki, inhibitor concentration range 0-5000 μM, mean±S.E.
[12] = Ki, inhibitor concentration range 0-10 μM, mean±S.E.
[13] = Ki, inhibitor concentration range 0-5 μM, mean±S.E.

Row | SMILES | inhibition ([1]; 50 µM) [%] | inhibition ([1]; 100 µM) [%] | inhibition ([1]; 500 µM) [%] | Ki [2, 3] [µM] | Ki [2, 4] [µM] | Ki [2, 5] [µM] | Ki [2, 6] [µM] | Ki [2, 7] [µM] | Ki [2, 9] [µM] | potency estimated from few doses [2] [µM] | inhibition at 25 µM [2] [%] | inhibition at 200 µM [2] [%] | inhibition at 1000 µM [2] [%] | Ki [2, 10] [µM] | inhibition at 10 µM [2] [%] | other results
1 | CC(C)(C#N)c1cc(Cn2cncn2)cc(C(C)(C)C#N)c1 [Anastrozole] | 12 | 13.2 | 35.6 | 231 ± 87 | 451 ± 163 | 700 ± 196 | 686 ± 99 | 745 ± 74 | 745 | 601 ± 69 | 9.73 | 18 | 48.3 | – | – | Ki [2, 8]: 153 ± 79 µM
2 | NS(=O)(=O)c1cc2c(cc1C(F)(F)F)NC(Cc1ccccc1)NS2(=O)=O (centres unmarked) [Bendroflumethiazide, bendroflumethiazide] | 30.5 | 37.6 | 63.6 | 84.3 ± 20.7 | 96.4 ± 16.2 | 121 ± 18 | 144 ± 20 | 149 ± 18 | 149 | 188 ± 21 | 8.86 | 46.6 | 79.4 | 166 ± 115 | – | –
3 | CCCCNc1cc(C(=O)O)cc(S(N)(=O)=O)c1Oc1ccccc1 [Bumetanide, bumetanide] | 12.2 | 15.6 | 48 | 232 ± 60 | 343 ± 75 | 299 ± 33 | 338 ± 28 | 341 ± 22 | 341 | 354 ± 35 | 7.1 | 32.1 | 65.6 | 211 ± 108 | – | –
4 | COCc1c(C(C)C)nc(C(C)C)c(/C=C/[C@@H](O)C[C@@H](O)CC(=O)O)c1-c1ccc(F)cc1 [Cerivastatin, cerivastatin] | – | – | – | – | – | – | – | – | – | 47.4 ± 22.5 | – | – | – | – | – | –
5 | CCCCOc1cc(C(=O)NCCN(CC)CC)c2ccccc2n1 [Dibucaine hydrochloride, dibucaine hydrochloride] | 27.6 | 43.8 | 73.7 | 93.2 ± 12.5 | 85.8 ± 7.6 | 96.2 ± 7.7 | 101 ± 7 | 101 ± 6 | 101 | 116 ± 3 | 10.5 | 53.9 | 86.7 | – | – | Ki [2, 8]: 140 ± 17 µM
6 | COc1ccc([C@@H]2Sc3ccccc3N(CCN(C)C)C(=O)[C@@H]2OC(C)=O)cc1 [Diltiazem hydrochloride, diltiazem hydrochloride] | 19.5 | 26.5 | 52.4 | 124 ± 16 | 174 ± 26 | 221 ± 28 | 273 ± 30 | 301 ± 28 | 301 | 296 ± 22 | 16 | 36.4 | 66.1 | – | – | Ki [2, 8]: 86.4 ± 11.9 µM
7 | CC(C)n1c(/C=C/C(O)CC(O)CC(=O)O)c(-c2ccc(F)cc2)c2ccccc21 (centres unmarked) [Fluvastatin, fluvastatin] | 52.6 | 77 | 95.5 | 27.4 ± 2 | 24.9 ± 1.9 | 25.1 ± 1.6 | 24.9 ± 1.6 | 24.8 ± 1.4 | 24.8 | 29.7 ± 2.4 | 40.2 | 82.9 | 96.2 | 24.5 ± 2.4 | – | Ki [2, 11]: 24.8 ± 1.3 µM; inhibition at 5000 µM [2]: 99.8%
8 | COc1ccc2c(c1)c(CC(=O)O)c(C)n2C(=O)c1ccc(Cl)cc1 [Indomethacin, indomethacin] | 27.3 | 46.8 | 76.4 | 80.5 ± 13.7 | 77.9 ± 8.4 | 84.2 ± 7.3 | 87.8 ± 6.8 | 86.4 ± 6 | 86.4 | 86.9 ± 12.5 | 23.2 | 59.1 | 89.5 | 53.9 ± 8.9 | 11 | Ki [2, 12]: 52.6 ± 13.6 µM
9 | COC(=O)C1=C(C)NC(C)=C(C(=O)OC(C)C)C1c1cccc2nonc12 (centres unmarked) [Isradipine, isradipine] | 49.7 | 68.1 | – | 42.7 ± 7.4 | 38.8 ± 5.1 | 36.4 ± 4.2 | – | – | 36.4 | 32.7 ± 2.7 | 25.7 | 82.5 | – | 60.4 ± 19.6 | 12.1 | Ki [2, 13]: 17.5 ± 6.6 µM; Ki [2, 12]: 53.4 ± 35.1 µM; Ki ([2]; Ki, inhibitor concentration range 0-[…], mean±S.E.): 9.55 ± 3.67 µM; inhibition at 5 µM [2]: 14.4%
10 | CC(C(=O)O)c1cccc(C(=O)c2ccccc2)c1 (centres unmarked) [Ketoprofen, ketoprofen] | – | – | 49.7 | – | – | 255 ± 14 | 305 ± 26 | 328 ± 24 | 310 | 336 ± 26 | – | 34.2 | 64.7 | – | – | Ki [2, 11]: 310 ± 28 µM; inhibition at 5000 µM [2]: 98%
11 | Cc1c(OCC(F)(F)F)ccnc1C[S+]([O-])c1nc2ccccc2[nH]1 (centres unmarked) [Lansoprazole] | 29.5 | 39.4 | 73.6 | 62.1 ± 11.3 | 86.9 ± 14.7 | 134 ± 25 | 132 ± 19 | 120 ± 16 | 120 | 116 ± 2 | 30.2 | 44.4 | 91.9 | 40.9 ± 7.09 | 5.99 | Ki ([2]; Ki, inhibitor concentrations 0, 10 μM (Table 4), mean±S.E.): 103 ± 37 µM
12 | CC(C)OC(=O)CCC/C=C\C[C@@H]1[C@@H](CC[C@@H](O)CCc2ccccc2)[C@H](O)C[C@@H]1O [Latanoprost, latanoprost] | 60.3 | 79.4 | 96.2 | 15.1 ± 2.4 | 14.3 ± 2 | 13.6 ± 1.9 | 13.3 ± 1.9 | – | 13.3 | 17.3 ± 2.7 | 46.9 | 90 | – | 14 ± 2.8 | 34.3 | Ki [2, 13]: 19.3 ± 6.7 µM; Ki [2, 12]: 12.2 ± 2.9 µM; inhibition at 5 µM [2]: 28.1%
13 | CN1CCCCC1CCN1c2ccccc2Sc2ccc([S+](C)[O-])cc21 (centres unmarked) [Mesoridazine besylate] | 31.3 | 52.5 | 79.8 | 69.9 ± 19.5 | 59.6 ± 9.9 | 63.6 ± 8.2 | 64.9 ± 7.3 | 63.5 ± 6.6 | 63.5 | 59.5 ± 7.3 | – | 62.2 | 94 | – | – | –
14 | N=C(N)c1ccc(OCCCCCOc2ccc(C(=N)N)cc2)cc1 [Pentamidine Isethionate, pentamidine isethionate] | 10.7 | 27.9 | 62.8 | 253 ± 126 | 189 ± 40 | 147 ± 23 | 164 ± 20 | 174 ± 19 | 174 | 194 ± 27 | 10.9 | 52.7 | 74.4 | – | – | Ki [2, 8]: 134 ± 82 µM
15 | O=C(O)C[C@H](O)C[C@H](O)/C=C/c1c(C2CC2)nc2ccccc2c1-c1ccc(F)cc1 [Pitavastatin] | 36.5 | 52.4 | 78.6 | 59.8 ± 7.5 | 60.9 ± 5.3 | 64.9 ± 4.8 | 67.6 ± 4.8 | – | 67.6 | 56.1 ± 4.4 | 22.7 | 64.6 | – | 54.1 ± 10.9 | 14.4 | Ki [2, 13]: 27.9 ± 7.3 µM; Ki [2, 12]: 29.7 ± 5.9 µM; inhibition at 5 µM [2]: 10.4%
16 | CC(C)c1nc(N(C)S(C)(=O)=O)nc(-c2ccc(F)cc2)c1/C=C/[C@@H](O)C[C@@H](O)CC(=O)O [Rosuvastatin] | 19.4 | 37.8 | 71 | 148 ± 33 | 118 ± 15 | 115 ± 10 | 117 ± 8 | – | 117 | 123 ± 11 | 8.9 | 53.3 | – | – | 11.7 | Ki [2, 12]: 46.7 ± 14.4 µM; Ki ([2]; Ki, inhibitor concentrations 0, 5 μM (Table 2), mean±S.E.): 196 ± 423 µM; Ki [2, 8]: 147 ± 67 µM; inhibition at 5 µM [2]: 1.54%
17 | CN1CCN(CC/C=C2/c3ccccc3Sc3ccc(S(=O)(=O)N(C)C)cc32)CC1 [Thiothixene, thiothixene] | – | – | 25.7 | – | – | 1030 ± 344 | 913 ± 115 | 1110 ± 136 | 917 | 905 ± 105 | – | 34.6 | 11 | – | – | Ki [2, 11]: 917 ± 111 µM; inhibition at 5000 µM [2]: 83.3%
18 | Clc1ccc(C(Cn2ccnc2)OCc2ccsc2Cl)c(Cl)c1 (centres unmarked) [Tioconazole, tioconazole] | 47.7 | 63.7 | 87.1 | 32.7 ± 4.7 | – | 33.7 ± 3.1 | 33.6 ± 2.8 | 34.1 ± 2.7 | 34.1 | 33 ± 6.2 | 32.2 | 74 | 87.2 | 32.3 ± 6.3 | – | Ki ([2]; inhibitor concentration range 0-100 μM, mean±S.E.): 32.8 ± 3.6 µM
